{"source": "patent US9518300B2", "about": "“Composition and method for treating a hematological malignancy” (Dana-Farber Cancer Institute, Inc., priority 2014, dated 2016)", "key": {"BCL9 [1]": {"test_system": "BCL9", "test": "Transfection of patient CD138+ primary cells, IF of BCL9, CD44, Axin2", "type": "cell-based, human", "details": "CD138+ primary cells (n=3), 40 pmol, control cel-miR-67", "from_the_text": "(§1) In order to verify miR-30's potential for therapy in MM patients, CD138+ primary cells (n=3) were transfected with 40 pmol of mature miR-30c or same amount of cel-miR-67 as control."}, "BCL9 [2]": {"test_system": "BCL9", "test": "BCL9 and Wnt target gene expression after ectopic miR-30 expression (Q-RT-PCR, immunoblot, IF)", "type": "cell-based, human", "details": "H929 cells", "from_the_text": "We next investigated whether BCL9 mRNA expression is regulated by miR-30s in MM cells using both gain- and loss-of function studies. For gain-of-function studies we used H929 cells that express the lowest levels of miR-30s among the MM cell lines examined (FIG. 1C).\nWe first induced ectopic expression of individual V-miR-30s family members in H929 cells using lentiviral infection. After flow sorting of GFP positive cells, levels of miR-30s were verified by Q-RT-PCR (FIG. 3A) and then used in subsequent experiments."}, "CD138+ primary cells": {"test_system": "CD138+ primary cells", "test": "Proliferation of patient CD138+ primary MM cells, [3H] thymidine uptake", "type": "cell-based, human", "details": "40 pmol", "description": "Cell proliferation was assessed by [^3H] thymidine uptake as described (1). For apoptosis, cells were stained with Annexin-V-Fluos (Boehringer, Mannheim, Germany). Stained cells were analyzed by flow cytometry, and data were analyzed by use of CellQuest (Becton-Dickinson, Sunnyvale, Calif.). Cell invasion and migration assays were done as described (2).\nas §1"}, "BCL9 [3]": {"test_system": "BCL9", "test": "Transient transfection of mature miR-30c, BCL9 immunoblot in RPMI8226 cells", "type": "cell-based, human", "details": "increasing amounts of mature miR-30c, 72 hours, control cel-miR-67", "description": "To exclude the possibility that the observed changes in BCL9 expression may be due to non specific and/or secondary effects of stable transfection of V-miR-30c, we also performed transient transfection with increasing amounts of mature miR-30c into RPMI8226 cells, using cel-miR-67 as a control (FIG. 3F).\nTo confirm transfection efficiency, cells were collected 72 hours after transfection, and miR-30c expression levels were checked by Q-RT-PCR (FIG. 3F, top). We found an inverse association between downregulation of BCL9 protein expression and increasing amounts of transfected mature miR-30c (FIG. 3F, bottom)."}, "H929 cells": {"test_system": "H929 cells", "test": "Dexamethasone sensitivity of H929 cells co-cultured with HS-5 BMSCs (CAM-DR)", "type": "cell-based, human", "details": "H929 with HS-5 cells 48 h, 200 nM dexamethasone, control cel-miR-67", "from_the_text": "Reasoning that CD44 is a downstream target of Wnt/β-catenin/BCL9 transcriptional complex, and that miR-30c downregulates expression of CD44 in MM cells (FIG. 3B), and that CD44 is a functional component of cell adhesion-mediated drug resistance (CAM-DR), we investigated the possible role of miR-30s in MM drug resistance in the context of a bone marrow (BM) microenvironment. After ectopic overexpression of miR-30c or miR-30a/b/c/d/e cocktail (miR-30mix) or a negative control (cel-miR-67) in H929 cells, we co-cultured these cells alone or in the presence of HS-5 cells for 48 h and treated them with 200 nM dexamethasone."}, "[4]": {"test": "μCT of bone in mice not transplanted with myeloma cells", "type": "in vivo", "details": "SCID mice not transplanted, 10 days of treatment, versus vehicle", "description": "Micro-computed topographic (μCT) imaging was performed on the L4-L6 vertebrae of the intact spine of a subset of mice using a high-resolution desktop imaging system (μCT40, Scanco Medical AG, Bruttisellen, Switzerland). Scans were acquired using a 12 μm^3 isotropic voxel size, 70 kVp peak x-ray tube potential, and 200 ms integration time. Cortical and trabecular bone micro architecture was quantified in the 5th lumbar vertebral body in a region beginning 120 μm below the cranial growth plate and ending 120 μm above the caudal growth plate. To assess cortical lesions, we determined the cortical bone volume (Ct.BV) and total volume (Ct.TV) of the ventral face of the vertebral body. Cortical void fraction (%) was calculated as 1−(Ct.BV/Ct.TV)*100 and represents the percent of the ventral face that was void of bone. Trabecular bone volume fraction (Tb.BV/Tb.TV, %) was measured in the region of interest. […]\nMicro-computed topographic (μCT) imaging was performed on the L4-L6 vertebrae of the intact spine of a subset of mice using a high-resolution desktop imaging system ([…], Scanco Medical AG, Bruttisellen, Switzerland). […] Cortical and trabecular bone micro architecture was quantified in the 5th lumbar vertebral body in a region beginning 120 μm below the cranial growth plate and ending 120 μm above the caudal growth plate. […]"}}}
{"substance": "miR-30c: microRNA, UGUAAACAUCCUACACUCUCAGC (SEQ ID NO: 3 / 29) (listed as RNA, chemistry not given here; listed as Homo sapiens)", "values": [{"measurement": "expression of BCL9, CD44 and Axin2", "setting": "BCL9 [1]", "value": "downregulated"}, {"measurement": "expression of BCL9 mRNA", "setting": "BCL9 [2]", "value": "significant reduction"}, {"measurement": "expression of Wnt pathway downstream targets CD44 and Axin2", "setting": "BCL9 [2]", "value": "reduced expression"}, {"measurement": "MM cell proliferation", "setting": "CD138+ primary cells", "value": "dramatically inhibited"}, {"measurement": "BCL9 protein expression", "setting": "BCL9 [3]", "value": "downregulation"}, {"measurement": "sensitivity to dexamethasone treatment", "setting": "H929 cells", "value": "resensitize"}, {"measurement": "bone osteolytic lesions", "setting": "[4]", "value": "No apparent development"}]}
